Laboratory results reported in PubChem BioAssay (NCI).
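All cell lines were grown in 96-well plates and treated with compound for 48 hours. GI50 = concentration required for 50% inhibition of growth. TGI: concentration producing complete growth inhibition.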

Experiments:
Assay in all cases: inhibition of tumour cell growth, NCI panel, 48 h
[1] = test system: COLO 205 colon
[2] = test system: EKVX NSCLC
[3] = test system: T-47D breast
[4] = test system: OVCAR-3 ovarian
[5] = test system: MDA-MB-435
[6] = test system: HT29 colon
[7] = test system: SK-OV-3 ovarian
[8] = test system: NCI/ADR-RES ovarian
[9] = test system: A498 renal
[10] = test system: A549 NSCLC

Compound | TGI [1] | TGI [2] | TGI [3] | TGI [4] | TGI [5] | TGI [6] | TGI [7] | TGI [8] | TGI [9] | TGI [10] | GI50 [1] | GI50 [2] | GI50 [3] | GI50 [4] | GI50 [5] | GI50 [6] | GI50 [7] | GI50 [8] | GI50 [9] | GI50 [10]
COc1cc([C@@H]2c3cc4c(cc3[C@@H](c3c(O)cc(O)c5c3O[C@H](c3ccc(O)c(O)c3)[C@@H](O)C5)[C@H]3COC(=O)[C@H]23)OCO4)cc(OC)c1OC | 51.8 µM | > 100 µM | 5.16 µM | 3.22 µM | 3.13 µM | 63.9 µM | 3.36 µM | > 100 µM | 2.95 µM | > 100 µM |  |  |  |  |  |  |  |  |  | 
OCCO/N=C1\C(c2c(O)[nH]c3ccccc23)=Nc2ccccc21 | > 100 µM | > 100 µM | > 100 µM | > 100 µM | > 100 µM | > 100 µM | > 100 µM | > 100 µM | 0.875 µM | > 100 µM |  |  |  |  |  |  |  |  |  | 
CSCSSC | > 100 µM | > 100 µM | > 100 µM | > 100 µM | > 100 µM | > 100 µM | > 100 µM | > 100 µM | > 100 µM | > 100 µM |  |  |  |  |  |  |  |  |  | 
COc1ccc(C2=Nc3cc(C)c(C)cc3NC(c3ccccc3)C2)cc1 (stereo not given) | 37.6 µM | > 100 µM | > 100 µM | > 100 µM | > 100 µM | > 100 µM | > 100 µM | > 100 µM | > 100 µM | > 100 µM |  |  |  |  |  |  |  |  |  | 
CCNCCCn1c2c(c3ccc(Cl)cc3c1=O)C(=O)c1cc(OC)cnc1-2 | 1.57 µM | 2.78 µM | 1.58 µM | 19.6 µM | 2.55 µM | 2.03 µM | 1.94 µM | 2.53 µM | 4.38 µM | 2.31 µM | 146 nM | 859 nM | 161 nM | 2130 nM | 1150 nM | 327 nM | 475 nM | 282 nM | 358 nM | 459 nM
Cc1ccc(OCC2OC(n3cnc4c(Cl)nc(N)nc43)CC2Oc2ccc(C)cc2)cc1 (stereo not given) | 98.2 µM | > 59.3 µM | > 100 µM | > 63.9 µM | > 100 µM | > 100 µM | > 100 µM | > 75.5 µM | > 100 µM | > 100 µM |  |  |  |  |  |  |  |  |  | 
OCC(O)C(O)C(O)C(O)c1nc2ccc(Cl)cc2[nH]1 (stereo not given) | > 100 µM | > 100 µM | > 100 µM | > 100 µM | > 100 µM | > 100 µM | > 100 µM | > 100 µM | > 100 µM | > 100 µM |  |  |  |  |  |  |  |  |  | 
CCCCC(=O)c1c(O)nc2sccn2c1=O | > 10 µM | > 10 µM | > 10 µM | > 10 µM | > 10 µM | > 10 µM | > 10 µM | > 10 µM | > 10 µM | > 10 µM |  |  |  |  |  |  |  |  |  | 
CCCCOC(=O)C(NC(C(=O)OCCCC)c1cc(C(C)(C)C)c(O)c(C(C)(C)C)c1)c1cc(C(C)(C)C)c(O)c(C(C)(C)C)c1 (stereo not given) | > 100 µM | > 100 µM | > 100 µM | > 100 µM | > 100 µM | > 100 µM | > 100 µM | > 100 µM | > 100 µM | > 100 µM |  |  |  |  |  |  |  |  |  | 
COc1ccc2c3c1OC1C(=O)C=CC4(CC2)N(C)CCC314 (stereo not given) | 22.7 µM | 92.8 µM | > 100 µM | > 100 µM | 61.2 µM | > 100 µM | > 100 µM | > 100 µM | 58.7 µM | 84.1 µM |  |  |  |  |  |  |  |  |  | 
CC(C)CNc1nc2ncnc(N)c2[nH]1 | > 100 µM | > 100 µM | > 100 µM | > 100 µM | > 100 µM | > 100 µM | > 100 µM | > 100 µM | > 100 µM | > 100 µM |  |  |  |  |  |  |  |  |  | 
ClCCCc1ccccc1C1=NCCc2ccccc21 | 52.9 µM | > 100 µM | > 100 µM | > 100 µM | > 100 µM | > 100 µM | > 100 µM | > 100 µM | > 100 µM | > 100 µM |  |  |  |  |  |  |  |  |  | 
CC(NC(=O)C(NC(=O)CNC(=O)OC(C)(C)C)C(C)C)C(=O)Oc1c(Cl)c(Cl)c(Cl)c(Cl)c1Cl (stereo not given) | 43.2 µM | 83.8 µM | 62.4 µM | 28.5 µM | 61.3 µM | 68.5 µM | 51.5 µM | 39.1 µM | 45 µM | 57.5 µM |  |  |  |  |  |  |  |  |  | 
C[n+]1cccc2c(=O)c3ccccc3oc21 | > 100 µM | > 100 µM | > 100 µM | > 100 µM | > 100 µM | > 100 µM | > 100 µM | > 100 µM | > 100 µM | > 100 µM |  |  |  |  |  |  |  |  |  | 
Cc1ccc([S@](=O)c2occc2C=O)cc1 | 28.9 µM | 43.6 µM | 7.11 µM | 6.41 µM | 20.8 µM | 27.2 µM | 26.5 µM | > 61 µM | 32.3 µM | 46.5 µM |  |  |  |  |  |  |  |  |  | 
CC1CCCC2(CC[N+](C)(CCC[N+](C)(C)C)CC2)C1 (stereo not given) | > 100 µM | > 100 µM | > 100 µM | > 100 µM | > 100 µM | > 100 µM | > 100 µM | > 100 µM | > 100 µM | > 100 µM |  |  |  |  |  |  |  |  |  | 
CCOP(=O)(/C=C\n1cc(C)c(=O)[nH]c1=O)OCC | > 100 µM | > 100 µM | > 100 µM | > 100 µM | > 100 µM | > 100 µM | > 100 µM | > 100 µM | > 100 µM | > 100 µM |  |  |  |  |  |  |  |  |  | 
COC(OC)[C@@H]1OC[C@H](n2cnc3c(N)ncnc32)[C@H]1O | > 100 µM | > 100 µM | > 100 µM | > 100 µM | > 100 µM | > 100 µM | > 100 µM | > 100 µM | > 100 µM | > 100 µM |  |  |  |  |  |  |  |  |  | 
CCCCCCCC/C=C\CCCCCCC/C=C1\C[C@](/C=C/C(=O)OC)(CO)OC1=O | 5.02 µM | 24.7 µM | 13.1 µM | 16.6 µM | 3.22 µM | 25.8 µM | 19.1 µM | 14.6 µM | 22.7 µM | 17.8 µM |  |  |  |  |  |  |  |  |  | 
N#CC1(C#N)NC(c2cccs2)C(C#N)(C#N)NC1c1cccs1 (stereo not given) | > 100 µM | > 100 µM | > 100 µM | 67.8 µM | > 100 µM | > 100 µM | > 100 µM | > 100 µM | 74.6 µM | > 100 µM |  |  |  |  |  |  |  |  |  | 
